Experimental data reported in US10471030B2, “Immunomodulatory and differentiating function selective retinoid and rexinoid compounds in combination with immune modulators for cancer immunotherapy” (Io Therapeutics, Inc., priority 2017, dated 2019).

Tests used:
MM cells = assay: surface CD138 expression of MM cells (flow cytometry); type: cell-based, human; settings: 1 μM
Procedure: (§1) 24-well plates were coated with 0.1% gelatin in PBS for 30 min at 37° C. The gelatin solution was removed, and the stromal cells were cultured overnight at a density of 5×10^4 cells/well to obtain a confluent monolayer. At that time, MM cell lines or primary MM cells (1×10^5 in 2 ml) were added to the stroma cultures. The stroma cocultures were incubated at 37° C. in RPMI containing 10% FCS, L-glutamine, and P/S, with or without AGN194310 (1 μM for 5 days), R115866 (1 μM for 5 days), IRX5183 (1 μM for 5 days), or BTZ (2.5 nM for 48 hr).
Following treatment, MM cells were collected, washed with PBS, and stained for 15 min at room temperature with phycoerythrin-conjugated (PE-conjugated) anti-CD138. Cells were washed to remove unbound antibody and evaluated in a FACSCalibur system (BD Biosciences). Stromal cells were identified by GFP expression, and viable cells were identified using 7-aminoactinomycin D (7-AAD). To calculate cell numbers, live GFP-cells were normalized to calibration beads.
Expression of CD138 is a hallmark of normal PC differentiation as well MM PCs.

[1] = system: MM H929 cell lines and MM CD138+ primary cells; assay: mRNA expression of B cell and PC markers in MM cells, liquid or BM stroma co-culture (qRT-PCR); type: cell-based, human; settings: 1 μM for 5 days; for expression of differentiation markers: liquid conditions (absence of stroma)
Procedure: as §1
(§2) Total RNA was extracted using the RNeasy Mini Kit (QIAGEN) according to the manufacturer's instructions. cDNA was synthesized by reverse transcription using the iScript cDNA Synthesis Kit (Bio-Rad). qRT-PCR was performed with iTaq SYBR Green Supermix (Bio-Rad) using sequence specific primers. Gene expression was normalized to GAPDH, and relative quantification was calculated using ΔΔCt. All experiments were performed in duplicate and run on the Bio-Rad CFX96 machine.
The BM microenvironment (also called “niche”) limits PC differentiation by modulating retinoid signaling. A population of MM progenitors, phenotypically similar to B cells, is intrinsically resistant to BTZ and contributes to MRD and relapse. To investigate whether the BM niche plays a role in determining the phenotype of MM cells, the mRNA expression of B cell and PC markers in MM H929 cell lines (FIGS. 3A-D) and MM CD138+ primary cells (FIGS. 3E-H) was analyzed following co-culture with mouse BM stroma using human-specific primers. […] In contrast, co-culture of MM cells with BM stroma decreased the mRNA expression of B lymphocyte-induced maturation protein 1 (BLIMP1) and spliced X box-binding protein 1 (XBP1s) (FIG. 3B, C, F, G), which are critical mediators of PC differentiation.
The BM niche regulates hematopoietic stem cell (HSC) differentiation by expressing the retinoid-inactivating enzyme CYP26. CYP26 enzymes were highly expressed in BM mesenchymal cells, while their expression was barely detectable in MM cells. Since retinoid signaling promotes PC differentiation and potentiates Ig secretion, it was determined whether stromal CYP26 is responsible for inducing a B cell phenotype in MM cells. To this end, co-culture conditions were treated with the CYP26 inhibitor R115866 (R115) or the CYP26-resistant RA receptor α-selective (RARα-selective) retinoid IRX5183 (IRX).

[2] = system: MM cell lines and MM CD138+ primary cells; assay: BTZ sensitivity of MM cells, clonogenic or cellular recovery, liquid or BM stroma; type: cell-based, human; settings: for BTZ resistance after separation from BM stroma: H929 cells, 5-day stroma co-culture, fresh media 0 to 48 hr; for sensitivity of MM cells to BTZ: BTZ 2.5 nM for 48 hr
Procedure: as §1
MM cells were separated from BM stromal cells by gently pipetting several times around the well. Detached cells were centrifuged, resuspended in fresh media, and incubated in a 24-well plate for 1 hr at 37° C. During this short incubation period, contaminating stromal cells attached to the well, while MM cells remained in suspension. MM cells were then recovered by gently pipetting. This protocol was used for qRT-PCR and CFU coculture experiments. The purity achieved using this protocol was confirmed by flow cytometry to be 98%-99% MM cells and less than 2% contaminating stroma.
After treatment, MM cells were collected, washed with PBS, and plated at a density of 5,000 cells/ml in 1 ml of 1.32% methylcellulose supplemented with 30% FBS, 10% BSA, L-glutamine, P/S, and 0.1 mM β-ME. Cells were plated in triplicate in 35-mm culture dishes, incubated at 37° C., and scored for the presence of colonies 14 days later.
To determine whether decreased retinoid signaling contributes to BTZ resistance within the BM niche, MM cell lines and MM CD138+ primary cells were incubated with BM stroma for 5 days, followed by BTZ treatment.
Strategies to overcome microenvironment-dependent chemoprotection have focused on mobilization of cancer cells from the BM niche into the peripheral circulation. It was analyzed whether the change in phenotype and subsequent BTZ resistance of MM cells were lost upon separation from the BM stroma, a process that mimics mobilization. To this end, H929 cells were separated from BM mesenchymal cells following a 5-day stroma co-culture, incubated in fresh media (RPMI with 10% FBS) for 0 to 48 hr, and then treated with BTZ. […] Thus, microenvironment-dependent BTZ resistance induced by the change in MM cell phenotype may not immediately be reversed by tumor mobilization.

[3] = system: Naive CD4+ CD25− FoxP3− cells; assay: Th17 cell differentiation from naive T cells in vitro; type: cell-based, mouse; settings: in vitro assay; data not shown
Procedure: (§3) To determine whether a RARα agonist could affect T cell differentiation, T cells were incubated with a RARα agonist to determine its effect on Foxp3 expression. Naive CD4^+ CD25^− FoxP3^− cells were purified from a Foxp3-GFP mouse using flow cytometry by sorting and isolating based upon a GFP^− phenotype. These cells were activated polyclonally with αCD3 in vitro in the presence of IL-2 and TGF-β. These cells were then cultured in media with various concentrations of compound IRX5183 (a RARα agonist) and the expression of FoxP3-GFP was analyzed by flow cytometry. The RARα agonist compound IRX5183 enhanced differentiation of immunosuppressive Treg cells and inhibited differentiation of inflammatory TH17 cells from naïve T cells in vitro (Table 2).

CD4+ T cells = assay: in vivo T cell differentiation in mice (FoxP3 expression in CD4+ T cells of blood and spleen); parameters: species or system mouse; settings: in vivo assay; data not shown
Procedure: To expand on the finding above, the in vivo effects of a RARα agonist on T cell differentiation was evaluated in a mouse model. Mice were treated with 100 μg of compound IRX5183 or an equivalent volume of DMSO (vehicle control) every other day for 10 days. Lymphocytes from the blood and spleen were then isolated and FoxP3 expression in CD4^+ T cells was assessed.

[4] = system: Naive CD4+ CD25− FoxP3− cells; assay: Treg cell differentiation from naive T cells in vitro (FoxP3-GFP, flow cytometry); type: cell-based, mouse; settings: in vitro assay; data not shown
Procedure: as §3

B16F10 tumor cells = assay: survival of C57BL/6 mice engrafted with B16F10 tumor cells; type: in vivo; settings: at 50 days; 10 nM RARγ agonist; vehicles only 0%
Procedure: The anti-tumor effects of anti-CTLA-4 antibody treatment combined with 10 nM RAR ? agonist (AGN204647 (IRX4647)) are examined in C57BL/6 mice engrafted with B16F10 tumor cells. […] The survival rate of the mice treated with anti-CTLA-4 antibody alone is 40% at 50 days while the mice treated with RAR ? agonist alone have a 30% survival in the same time.

Kasumi-1 cells = assay: CFU experiments off and on stroma, Kasumi-1 cells; type: cell-based; settings: 10^−6 M ATRA, IRX5183, or 10^−7 M AM80
Description: (§4) Data across three independent experiments.

OCI-AML3 cells = assay: CFU experiments off and on stroma, OCI-AML3 cells; type: cell-based; settings: 10^−6 M ATRA, IRX5183, or 10^−7 M AM80
Description: as §4

NB4 cells = assay: CFU experiments off and on stroma, NB4 cells; type: cell-based; settings: 10^−7 M ATRA, IRX5183, or 10^−8 M AM80
Description: as §4

H929 Luc+ cells = assay: subcutaneous xenograft model of MM-niche interactions with WT or Smo-KO stroma, bioluminescence; type: in vivo, NSG mice; settings: BTZ 0.5 mg/kg i.p. twice weekly
Procedure: 1×10^6 H929 Luc+ cells and 1×10^6 mouse BM stromal cells were resuspended in 100 μl […]®, diluted with RPMI (1:1), and injected subcutaneously into 16-week-old male NSG mice. After 4 days, treatment with BTZ (0.5 mg/kg i.p. twice weekly) and IRX (10 mg/kg i.p. daily) was initiated. Tumor burden was assessed by bioluminescence using the In Vivo Imaging System (PerkinElmer). For imaging, mice were exposed to 120 mg/kg D-luciferin via intraperitoneal injection […] before imaging and were anesthetized using isoflurane. Images were analyzed with Living Image Software, version 2.5 (PerkinElmer), and data were quantified as photons/second.
To study to what extent an RA-low environment created by the BM stroma and enhanced by MM cells via paracrine Hedgehog signaling contributes to BTZ resistance, a xenograft model of MM-niche interactions was developed. Each mouse carried 2 subcutaneous tumors consisting of H929 Luc+ cells and either WT (anterior tumors) or Smo-KO stroma (posterior tumors). Mice were treated with IRX (10 mg/kg i.p. daily), BTZ (0.5 mg/kg i.p. twice weekly), or a combination of both. The growth of tumors bearing WT or Smo-KO stroma was not different in untreated or IRX-treated groups (FIGS. 9 and 10). […] While some tumors in the treatment group receiving combined IRX and BTZ appeared to have regressed completely, even after anatomical study, this was not the case for all the mice in this group.

[5] = system: H929 luciferase+ (Luc+) cells; assay: systemic MM xenograft, bioluminescence; type: in vivo, NSG mice; settings: monotherapy, 4 weeks; BTZ 0.5 mg/kg i.p. twice weekly, IRX 10 mg/kg once daily
Procedure: For the systemic MM model, 2×10^6 Luc+/GFP+ H929 cells were injected via the tail vein into 16-week-old male NSG mice. After engraftment, as determined by an exponential increase in bioluminescence, mice were treated with BTZ (0.5 mg/kg i.p.) twice weekly and with IRX (10 mg/kg) once daily. Tumor burden was assessed by bioluminescence, as above.
To test whether retinoids can enhance BTZ activity in MM, a systemic MM xenograft was developed by injecting 2×10^6 H929 luciferase+ (Luc+) cells via the tail vein of non-obese, diabetic, severe combined immunodeficiency IL-2 receptor γ-KO (NSG) mice. The animals were randomized to receive IRX, BTZ, or a combination of both, and disease burden was followed weekly by bioluminescence imaging (FIG. 6).

CYP26A1 = assay: stromal CYP26A1 expression in BM stromal cells (qRT-PCR); type: cell-based; settings: for CYP26A1 expression on BM stromal cells: soluble factors tested
Procedure: as §2

## CCc1ccc(C2=CC(C)(C)Sc3ccc(C#Cc4ccc(C(=O)O)cc4)cc32)cc1 [AGN194310]
MM cells; without stroma
  surface CD138 expression: markedly decreased
[1]
  expression of differentiation markers: mimicked the changes induced by BM stromal cells
[2]; liquid, 1 μM for 5 days, then BTZ
  BTZ sensitivity of MM cells: decreasing BTZ sensitivity

## CCOc1c(Br)cc(C(=O)Nc2ccc(C(=O)O)cc2)cc1C(=O)c1ccc(C)cc1 [AGN196996]
[3]
  Th17 cell numbers: increases Th17 cell numbers
CD4+ T cells
  Th17 cell numbers: increases Th17 cell numbers
  Treg cell numbers: decreases Treg cell numbers
[4]
  Treg cell numbers: decreases Treg cell numbers

## CC1(C)CCC(C)(C)c2cc(C(/C=C/c3cccc(C(=O)O)c3)=N/O)ccc21 [AGN204647]
B16F10 tumor cells
  survival rate: 30%

## CC1(C)CCC(C)(C)c2cc(NC(=O)c3ccc(C(=O)O)cc3)ccc21 [AM80, 4-[(5,6,7,8-tetrahydro-5,5,8,8-tetramethyl-2-naphthalenyl)carbamoyl]benzoic acid]
Kasumi-1 cells
  clonogenic growth (CFU): decrease in clonogenic growth compared to control
OCI-AML3 cells
  clonogenic growth (CFU): decrease in clonogenic growth compared to control
NB4 cells
  clonogenic growth (CFU): decrease in clonogenic growth compared to control

## CC1=C(/C=C/C(C)=C/C=C/C(C)=C/C(=O)O)C(C)(C)CCC1 [ATRA, all-trans retinoic acid]
Kasumi-1 cells
  clonogenic growth (CFU): stroma blockage
OCI-AML3 cells
  clonogenic growth (CFU): stroma blockage
NB4 cells
  clonogenic growth (CFU): stroma blockage

## CC(C)C[C@H](NC(=O)[C@H](Cc1ccccc1)NC(=O)c1cnccn1)B(O)O [BTZ, bortezomib]
H929 Luc+ cells
  response of tumors carrying Smo-KO stroma (bioluminescence): significant response
  response of tumors with WT stroma (bioluminescence): refractory to BTZ treatment
[5]
  tumor burden (bioluminescence): decreased tumor growth compared with untreated controls
[2]; then BTZ
  BTZ resistance after separation from BM stroma: remained partially resistant to BTZ for up to 48 hr
[2]; absence of BM stroma (liquid)
  sensitivity of MM cells to BTZ: highly sensitive
[2]; after 5 days incubation with BM stroma
  sensitivity of MM cells to BTZ: induced BTZ resistance

## CCC(CC)C(c1ccc(Nc2nc3ccccc3s2)cc1)n1cncn1 (stereo not shown) [Compound R115866]
MM cells; BM stromal cell co-cultures
  surface CD138 expression: restored CD138 expression
[1]; BM stroma co-cultures
  mRNA expression of BCL6, BLIMP1, XBP1s, CHOP markers: restored all markers to levels comparable to those of liquid control conditions
[1]
  expression of differentiation markers: did not significantly affect
[2]; BM stroma with 1 μM test agent for 5 days, then BTZ 2.5 nM for 48 hr
  stroma-induced BTZ resistance: overcome
[2]; then BTZ
  BTZ resistance after separation from BM stroma: prevented the development of a BTZ-resistant phenotype

## CC1=C2C[C@H]3[C@@H](CC=C4C[C@@H](O)CC[C@@]43C)[C@@H]2CC[C@]12O[C@@H]1C[C@H](C)CN[C@H]1[C@H]2C [cyclopamine]
CYP26A1; co-culture with MM cells
  stromal Cyp26a1 upregulation by MM cells: partially overcame

## IL-6: cytokine, soluble factor tested
CYP26A1
  CYP26A1 expression on BM stromal cells: no significant effects

## TNF-α
CYP26A1
  CYP26A1 expression on BM stromal cells: no significant effects
